Data set [1] in a line: 25% mouse serum.
The conditions of data set [2]: cited from earlier work.
A short description of data set [3]: 100% mouse serum.
The test system of data set [4] is Pseudomonas aeruginosa (luminescent strain). As to the kind of experiment: Substitution analysis of apidaecin 1b by peptide array, bioluminescence assay. The format is cell-based. The following applies: FIG. 1, luminescence, P. aeruginosa. How it is done: To optimize the antimicrobial activity of apidaecin 1b, a substitution analysis was carried out using this peptide (according to SEQ ID No. 2). The substitution library was synthesized by means of SPOT synthesis, and was analyzed for antibacterial activity against Pseudomonas aeruginosa by means of bioluminescence assay.
The SPOT synthesis of the peptide libraries was carried out on Whatman 50 filter paper (Sigma-Aldrich, Germany) measuring 19×29 cm by means of the Fmoc method and a SPOT synthesizer (Intavis AG, Germany) (according to Reineke U et al. 2001). The luminescence screening method that was used is based on the publication by Hilpert and Hancock (Hilpert, 2007). The peptides synthesized on the membrane were split off and the peptide spots were punched out of the peptide membrane using a hole punch, and were transferred to a 96-well microtiter plate (Corning, USA), after which 200 μL distilled water per well was added. […]
In the second step, the actual screening was performed. […] The incubation suspension (4 vol. % Log C in 100 mM Tris-HCl buffer (pH 7.3) with 40 mM sterile filtered glucose) was then distributed to 96-well plates (VWR, Germany) that are suitable for luminescence, and incubated with a concentration series of the peptide library for 4 hours at 37° C. After incubation, luminescence measurement was performed using a luminometer (Thermo, Finland).

Entries after “also recorded” stand apart in the source; their conditions may differ. Peptide text beside a SMILES is read from it.

Consider gu-OWNRPVYIPRPRRPHPRL-NH2, for which, in data set [1], the fragment found entry is given as “gu-O1-R17; also recorded: gu-O1-R12”.
On the same count and under the same terms, the entry for gu-ONNRPVYIPRPRPPHPRL-NH2 is “gu-O1-R17”.
`CC[C@H](C)[C@H](NC(=O)[C@@H]1CCCN1C(=O)[C@H](CCCNC(=N)N)NC(=O)[C@@H]1CCCN1C(=O)[C@H](Cc1cnc[nH]1)NC(=O)[C@H](CO)NC(=O)[C@@H](NC(=O)[C@@H]1CCCN1C(=O)[C@H](CCCNC(=N)N)NC(=O)[C@@H]1CCCN1C(=O)[C@H](CO)NC(=O)[C@H](Cc1ccc(O)cc1)NC(=O)[C@@H]1CCCN1C(=O)[C@H](CCCNC(=N)N)NC(=O)[C@@H]1CCCN1C(=O)[C@H](CCCCN)NC(=O)CN)[C@@H](C)O)C(=O)N[C@@H](CCCNC(=N)N)C(=O)N[C@H](C(=O)O)C(C)C` [drosocin] (H-GKPRPYSPRPTSHPRPIRV-OH): the “breakdown in mammalian serum (25%)” value in data set [2] was “broken down within one hour”.
gu-OWNRPVYIPRPRPPHPRL-OH: in data set [3], the fragment found result is “gu-O1-R17”.
On to “native apidaecin sequence that is substituted at position 1 with cysteine: apidaecin 1b (SEQ ID No. 2) substituted at position 1 with cysteine, from the SPOT substitution library (CNNRPVYIPQPRPPHPRL; listed as Apis mellifera)”, for which the “substitution analysis value (measure of the activity; less than 1 = enhancement relative to native apidaecin)” value in data set [4] is given as 0.55.
